Experimental findings from patent US20230190863A1, “PHARMACEUTICAL COMPOSITIONS AND ANTI-VIRAL USES THEREOF” (priority 2020, published 2023) are described below.

Values joined by “and” are separate entries in the source; they are usually repeats but may differ in a detail not shown here. Identical values can stand only once. Like-named read-outs stand apart in the source and are kept apart here. Ends that are not written are not given here.

Series [1] deals with Influenza A virus (A / WSN /33).
For series [2], the system named is MDCK-II cells. The note with it: for Absorbance values - cytotoxicity at 24 h: MTT 570 nm; for Absorbance values - cytotoxicity at 24 h / Percentages of cytotoxicity at 24 h: replicates.
For series [3], the system named is Influenza A virus (A / WSN /33). As to the kind of experiment: microbe, parasite or virus in culture. The following applies: MDCK-II, 24 h.
The subject of series [4] is SARS-CoV2.
The subject of series [5] is Vero cells. The note with it: for Absorbance values - cytotoxicity at 24 h / Percentages of cytotoxicity at 24 h / cytotoxicity (in words): Vero cells; for Absorbance values - cytotoxicity at 24 h: MTT 570 nm; for Absorbance values - cytotoxicity at 24 h / Percentages of cytotoxicity at 24 h: replicates.
Protocol: (§1) Antiviral activity was determined at 24 h using an immunofluorescence-based assay. Cytotoxicity was determined using an MTT assay on uninfected cells treated with the same concentrations of peptide.
(§2) Virus and peptide were left on the cells for the entire duration of the experiment (24 h).
(§3) Either immediately after infection, or 2 h after infection, 50µl of treatment from the dilution plate were transferred to the cells in each plate (infectivity and cytotoxicity). […] 50 µl of media without diluent were added to the cytotoxicity plate instead of virus. Both plates were incubated at 37° C., 5% CO2 for 24 h.
(§4) The cytotoxicity plate was treated with MTT to determine cell viability.
(§5) Cytotoxicity was detected by MTT assay following standard protocols and techniques. Briefly, the MTT reagent (Sigma, M5655) was added to the cells for 2 h at 37° C., 5% CO2, after which the media was removed and the precipitate solubilized with a mixture of 1: 1 Isopropanol: DMSO for 20 minutes. The supernatant was transferred to a clean plate and signal read at 570 nm.
Series [6] has as its system SARS-CoV2. Briefly: microbe, parasite or virus in culture. The note with it: Severe acute respiratory syndrome coronavirus 2, Vero, 24 h.
Series [7] in a line: Preliminary safety in pilot studies using human subjects. In kind it is in vivo.
The nature of series [8]: in vitro. The note with it: African green monkey.
Protocol: as §1, §2, §3, §4, §5
Series [9] can be described thus: in vitro. The following applies: dog, MTT.
The test system of series [10] is SARS-CoV-2. As to the kind of experiment: Clinical study of INS peptide (GAMMORA) in patients with moderate to severe COVID-19. The following applies: of 15 treated, 40 mg/day SC for 9 days plus standard of care (Atripla). It is filed as in vivo, human.
The mark [11] stands for this setting: uninfected Vero cells, MTT, 24 h.

With `O=C(Nc1ccc([N+](=O)[O-])cc1Cl)c1cc(Cl)ccc1O` [Niclosamide, reference compound], the “SI50 (=TC50/EC50)” value in series [1] came to 16.84. Besides, the “SI90 (=TC90/EC90)” value in series [1] came out at 4.19. Besides, the “Absorbance values - cytotoxicity at 24 h” value in series [2] (0 µM) is 0.1646 and 0.1811; in [2] (0.01 µM) it was 0.2048; in series [2] (0.04 µM), 0.2247 and 0.2292; in series [2] (0.12 µM), 0.213 and 0.2407; in [2] (0.37 µM) it was 0.2429 and 0.2319; in series [2] (1.11 µM), 0.227 and 0.2465. Moreover, the “Absorbance values - cytotoxicity at 24 h” value in series [2] (3.33 µM) is 0.2005 and 0.1965; in [2] (10 µM) it was 0.107 and 0.1166. For the same molecule, the “Percentages of cytotoxicity at 24 h” value in series [2] (0 µM) was 16.58% and 8.22%; in [2] (0.01 µM), -3.79%; in series [2] (0.04 µM), -13.87% and -16.15%; in series [2] (0.12 µM), -7.94% and -21.98%; in series [2] (0.37 µM), -23.1% and -17.52%; in series [2] (1.11 µM), -15.04% and -24.92%. Besides, the “Percentages of cytotoxicity at 24 h” value in [2] (3.33 µM) was -1.61% and 0.42%; in series [2] (10 µM), 45.77% and 40.91%. Moreover, a half-maximal effect in [3] (EC50) was put at 0.61 µM. In addition, the 90% effect level in series [3] (EC90) was put at 3.06 µM.

In series [4], `CCC(CC)COC(=O)[C@H](C)N[P@](=O)(OC[C@H]1O[C@@](C#N)(c2ccc3c(N)ncnn23)[C@H](O)[C@@H]1O)Oc1ccccc1` [Remdesivir, reference compound] showed an EC99.9 of 4.4 µM. Besides, the “Absorbance values - cytotoxicity at 24 h” value in series [5] (0.01 uM) was 0.1378 and 0.1381; in series [5] (0.03 uM), 0.147 and 0.1423; in [5] (0.08 uM), 0.1483 and 0.1462; in series [5] (0.25 uM), 0.1554 and 0.1531; in [5] (0.74 uM), 0.1606 and 0.1568; in series [5] (2.22 uM), 0.1599 and 0.1541. The “Absorbance values - cytotoxicity at 24 h” value in series [5] (6.67 uM) was 0.1198 and 0.1127; in [5] (20 uM), 0.1234 and 0.1247. This molecule registered an EC50 in series [6] of 1.28 µM. Further, the 90% effect level in [6] (EC90) was put at 3.9 µM.

WTAVQMAVFIHNFKRK [Codivir]: in [7], the “adverse events / severe adverse events” value is on record as “No adverse events or severe adverse events were detected”. Besides, the “tolerability, side effects” value in [7] is “tolerable, exhibits no reported side effects and no harm to immune system, with no adverse events”. Besides, in series [7], the “vital signs, physical examinations” value is reported as “no significant differences”. Besides, the blood tests entry in series [7] (relative to baseline) is “no significant changes relative to the baseline”. In series [4] (24 h), this molecule yielded an EC50 of 12.5 µM. Also, the “Absorbance values - cytotoxicity at 24 h” value was 0.1161 and 0.1456 and 0.1448 and 0.1447 and 0.1351 in [5] (0.05 uM); 0.1361 and 0.143 and 0.1487 and 0.1479 and 0.1455 and 0.1446 in series [5] (0.15 uM); 0.1454 and 0.1447 and 0.1452 and 0.1433 and 0.1468 and 0.1493 in series [5] (0.46 uM); 0.1306 and 0.1426 and 0.1477 and 0.1432 and 0.1433 and 0.1556 in series [5] (4.17 uM); 0.1196 and 0.1315 and 0.1325 and 0.1324 and 0.1314 and 0.1395 in series [5] (12.50 uM); 0.0691 and 0.075 and 0.0733 and 0.0763 and 0.0762 and 0.0822 in series [5] (25.00 uM). The “Absorbance values - cytotoxicity at 24 h” value in series [5] (75.00 uM) was 0.0407 and 0.0403 (2×) and 0.0389 and 0.0414 and 0.0421; in series [2] (0.05 µM), 0.0985 and 0.1183 and 0.1389 and 0.1493 and 0.1468 and 0.1612; in series [2] (0.15 µM), 0.1552 and 0.1707 and 0.1789 and 0.1965 and 0.1896 and 0.2019; in [2] (0.46 µM) it was 0.1522 and 0.1679 and 0.2104 and 0.2062 and 0.1922 and 0.1978; in series [2] (4.17 µM), 0.2071 and 0.1982 and 0.2203 and 0.2153 and 0.2027 and 0.2054; in series [2] (12.50 µM) it was 0.183 and 0.2158 and 0.2057 and 0.2165 and 0.2045 and 0.2113. Moreover, the “Absorbance values - cytotoxicity at 24 h” value is 0.1794 and 0.1713 and 0.1708 and 0.1681 and 0.1845 and 0.1841 in series [2] (25.00 µM); 0.0422 and 0.0436 and 0.0425 and 0.0421 (2×) and 0.0419 in series [2] (75.00 µM). For the same molecule, the “Percentages of cytotoxicity at 24 h” value was 4.24% and -20.09% and -19.43% and -19.35% and -9.12% and -11.43% in [5] (0.05 uM); -12.26% and -17.95% and -22.65% and -21.99% and -20.01% and -19.27% in series [5] (0.15 uM); -19.93% and -19.35% and -19.76% and -18.20% and -21.08% and -23.15% in series [5] (0.46 uM); -7.72% and -17.62% and -21.83% and -18.12% and -18.20% and -28.34% in series [5] (4.17 uM); 1.35% and -8.46% and -9.29% and -9.21% and -8.38% and -15.06% in series [5] (12.50 uM); 43.00% and 38.14% and 39.54% and 37.07% and 37.15% and 32.20% in [5] (25.00 uM). The “Percentages of cytotoxicity at 24 h” value in series [5] (75.00 uM) is 66.433% and 66.76% (2×) and 67.91% and 65.85% and 65.27%; in series [2] (post infection, 0.05 µM), 24.34% and 25.6% and 18.31%; in series [2] (post infection, 0.15 µM), 0.42% and 3.91% and -2.32%; in series [2] (post infection, 0.46 µM), -4.5% and 2.6% and -0.24%; in series [2] (post infection, 4.17 µM), -9.11% and -2.72% and -4.09%; in series [2] (post infection, 12.50 µM), -9.72% and -3.64% and -7.08%. The “Percentages of cytotoxicity at 24 h” value is 14.81% and 6.5% and 6.7% in series [2] (post infection, 25.00 µM); 78.66% (2×) and 78.77% in [2] (post infection, 75.00 µM); 50.08% and 40.05% and 29.61% in series [2] (with infection, 0.05 µM); 21.35% and 13.49% and 9.34% in series [2] (with infection, 0.15 µM); 22.87% and 14.91% and -6.63% in series [2] (with infection, 0.46 µM); -4.95% and -0.44% and -11.64% in series [2] (with infection, 4.17 µM). Moreover, the “Percentages of cytotoxicity at 24 h” value was 7.26% and -9.36% and -4.24% in series [2] (with infection, 12.50 µM); 9.08% and 13.19% and 13.44% in series [2] (with infection, 25.00 µM); 78.61% and 77.9% and 78.46% in series [2] (with infection, 75.00 µM). The “cytotoxicity (in words)” value is “minimal cytotoxicity” in series [5] (at concentrations giving 90% inhibition of infectivity), “Some cytotoxicity” in series [5] (highest concentrations tested) and “Some cytotoxicity” in series [2] (highest concentrations tested). Also, the TC90 in series [5] (setting [11]) is given as 143.6 µM; in [2] (MTT, 24 h), “around 100 µM”. This molecule came in with a TC99.9 in [5] (setting [11]) of 185.9 µM. Further, the CC50 at 24 h was 43.5 µM in [8]; about 50 µM in series [9] (TC50, text, MDCK-II cells); 51 µM in series [9] (uninfected MDCK-II cells, TC50, post-infection row); 49.2 µM in series [9] (uninfected MDCK-II cells, TC50, with infection row).

Turning to WTAVQMAVFIHNFKRK [INS-HC1], the “patients recovered completely and negative for SARS-CoV-2 at end of study” value in series [10] is “Four”. In series [10] (moderate to severe COVID-19, control group (Atripla only): 14 out of 15 died), the “patients discharged from intensive care unit (ICU) to the general ward with almost full recovery” value is given as 15 patients.

A word on the EC50: it is the concentration that produces a half-maximal response. For orientation: EC90 means the point of the concentration-response curve where the effect stands at 90%.
